Laboratory results as given in patent US12410141B2, “Anti-cancer spirocyclic-guanidine compounds and uses thereof” (The Johns Hopkins University, priority 2020, dated 2025).
Several values for one entry are separate records, joined by “and”; a condition that tells them apart may be missing. Equal values may be shown once.

Experiments:
SKOV3 = experiment: MTT cytotoxicity assay, SKOV3; format: cell-based; settings: SKOV3, ovarian, 72 hr, read-out: IC50, cell killing
Method: (§1) All cell lines were obtained from the American Type Culture Collection (ATCC) and cultured in the specified medium supplemented with 10% fetal bovine serum, 100 IU/mL penicillin, and 100 μg/mL streptomycin at 37° C. in a humidified 5% CO2/95% air incubator. To assess drug cytotoxicity cells were seeded at 2,500 cells/well (10,000 cells/well for MM lines and primary cells) in 100 μL medium in 96-well plate. […]
(§2) It was examined whether the RPN13 inhibitor, RA475, was cytotoxic for cancer cell lines using the MTT assay.

SUM149 = experiment: MTT cytotoxicity assay, SUM149; format: cell-based; settings: SUM149, breast, 72 hr, read-out: IC50, cell killing
Method: as §1, §2

HCC1806 = experiment: MTT cytotoxicity assay, HCC1806; format: cell-based; settings: HCC1806, breast, 72 hr, read-out: IC50, cell killing
Method: as §1, §2

HCT116 = experiment: MTT cytotoxicity assay, HCT116; format: cell-based; settings: HCT116, colon, 72 hr, read-out: IC50, cell killing
Method: as §1, §2

CD-1 mice = experiment: Single-dose tolerability in CD-1 mice; format: in vivo, mouse
Method: All animal procedures were performed according to protocols approved by the Johns Hopkins University Animal Care and Use Committee, and in accordance with the AAALAC recommendations for the proper use and care of laboratory animals (protocol MO15M375, renewed as MO18M129). Four to six week old female CD-1 mice were purchased from Jackson Laboratories (ME, USA). Isoflurane anesthesia was used during imaging. The health conditions and/or criteria under which early euthanasia or withdrawal of an animal from the study was implemented included, but are not limited to, general signs of distress such as hunched posture, lethargy, anorexia, dehydration, rough hair coat and/or those that are directly related to the experimental procedures e.g. loss of weight >10%, lethargy, restricted movement of limbs, distended abdomen. Animals in distress were euthanized by carbon dioxide asphyxiation, and cervical dislocation was used to ensure death. This is an acceptable form of euthanasia for mice and in compliance with the recommendations of the Panel on Euthanasia of the American Veterinary Medical Association.
RA475 powder was directly dissolved in 25% β-hydroxy propyl cyclodextrin as a clear solution and administered at increasing single doses to CD-1 mice (n=3) via intraperitoneal injection.

OVCAR3 = experiment: Flow cytometry analysis of cell death, OVCAR3; format: cell-based; settings: 1 μM or 2 μM, 16 hr
Method: 10^5 cells were re-suspended in binding buffer, 5 μL of Annexin V-PE (Apoptosis Detection Kit I (BD Pharmingen) and 5 μL of 7-AAD were then added into the cells, which were then incubated at room temperature for 15 minutes and analyzed by flow cytometry on a FACSCalibur using CellQuest software (Becton Dickinson).
Two ovarian cancer cell lines, ES2 and OVCAR3, were treated with 1 μM or 2 μM RA475 and 16 hr later the cells were harvested and stained with 7-AAD and Annexin V. 7-AAD is a DNA dye that can enter dying cells and Annexin V is commonly used to detect apoptotic cells by its ability to bind to phosphatidylserine, an early marker of apoptosis when it is exposed on the outer leaflet of the plasma membrane.

42 kDa RPN13 = biological target: T1, 42 kDa RPN13 (Homo sapiens, UniProt Q16186); experiment: RA190B competitive labeling assay in ES2 cell lysate; format: binding; settings: ES2 cell lysate pre-incubated 45 min at 4° C. (bortezomib or Up compounds 5 μM), then RA190B 20 μM
T1 construct: endogenous in cells; host or cells: ES2 cell lysate (clarified, in MPER buffer)
T1 sequence (Q16186 whole entry): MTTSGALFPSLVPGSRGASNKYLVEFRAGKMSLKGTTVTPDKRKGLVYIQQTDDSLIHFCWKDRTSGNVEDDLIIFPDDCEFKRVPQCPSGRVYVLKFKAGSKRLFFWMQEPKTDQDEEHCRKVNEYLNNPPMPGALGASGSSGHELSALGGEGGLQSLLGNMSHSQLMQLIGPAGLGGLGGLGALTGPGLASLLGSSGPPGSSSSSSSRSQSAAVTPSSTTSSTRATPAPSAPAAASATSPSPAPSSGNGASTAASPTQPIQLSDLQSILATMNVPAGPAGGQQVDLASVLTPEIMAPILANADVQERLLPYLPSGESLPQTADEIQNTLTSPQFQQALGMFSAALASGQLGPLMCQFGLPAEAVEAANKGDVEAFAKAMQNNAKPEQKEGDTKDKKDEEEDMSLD
Method: Clarified cell lysate (40 ug/sample) in MPER buffer was pretreated with streptavidin-coated magnetic beads for 45 min at 4° C. to deplete non-specific biotinylated proteins in the cell lysate. […] Next, the samples were mixed with Laemmli sample buffer (BioRad) and boiled for 5 min. The proteins were separated using a 4-15% Bio-Rad Mini-PROTEAN SDS-PAGE gel (1 hr at 100 V), and transferred to PVDF membrane overnight at 4° C. (24 V). The membrane was blocked with 5% BSA in PBST for 1 hr at RT and washed for 20 minutes (3× with PBST). Then the membrane was probed with HRP-streptavidin (1:10,000 in PBST) for 1 hr at RT, washed for 30 min (3× with PBST), and developed using HyGLO chemiluminescent detection reagent (Denville) for biotin detection.
ES2 cell lysates were incubated with 20 μM RA190B for 45 min at 4° C., and then separated by SDS-PAGE, transferred to a PVDF membrane.

| competition with binding of RA190B to the 42 kDa RPN13 (42 kDa RPN13) | SMILES | IC50 (SKOV3) | IC50 (SUM149) [nM] | IC50 (HCC1806) [nM] | IC50 (HCT116) [nM] | NOAEL (CD-1 mice; single dose, intraperitoneal, 80 mg/Kg highest dose level tested) [mg/kg] | adverse events (CD-1 mice; single i.p. doses at or below 80 mg/Kg) | 7-AAD and Annexin V double positive cells (OVCAR3) |
| --- | --- | --- | --- | --- | --- | --- | --- | --- |
|  | Cl.Cl.N#Cc1ccc(/C=C2/C(=O)/C(=C/c3ccc(C#N)cc3)C23CCN(C(=N)N)CC3)cc1 [RA475] | 300 nM and 190 nM | 100 | 113 | 430 | > 80 | No evidence of adverse events, including weight loss | dose-dependent induction |
| competed | N#Cc1ccc(/C=C2/C(=O)/C(=C/c3ccc(C#N)cc3)C23CCNCC3)cc1 [Up284, reference compound] |  |  |  |  |  |  |  |
